In brackets after ≈: the same amount, converted by molar mass.
How the values were obtained:
Pyricularia oryzae = assay: Antifungal activity against Magnaporthe oryzae after 3 days; type: functional, organism-based
Bipolaris oryzae [1] = assay: Antifungal activity against Bipolaris oryzae after 3 days; type: functional, organism-based
Fusarium fujikuroi [2] = assay: Antifungal activity against Fusarium fujikuroi after 3 days; type: functional, organism-based
Fusarium fujikuroi [3] = assay: Antifungal activity against Fusarium fujikuroi infected in rice plant assessed as control of bakanae disease at 75 ug/ml treated as seed treatment after 2 weeks; type: functional
Fusarium fujikuroi [4] = assay: Antifungal activity against Fusarium fujikuroi infected in rice plant assessed as control of bakanae disease at 300 ug/ml treated as seed treatment after 2 weeks; type: functional
Oryza sativa = assay: Growth inhibition of Oryza sativa (rice) assessed as growth rate by measuring first sheath length at 250 ug/ml treated as seed treatment 24 hr before emergence measured after 10 days relative to control; type: organism-based; parameters: scale not given: the % may be the effect or the level left; settings: in vivo, 240 h
Bipolaris oryzae [5] = assay: Antifungal activity against Bipolaris oryzae infected in fifth-leaf stage of rice plant assessed as control of brown spot disease at 9 ug/ml treated as foliar application after 6 days; type: functional
Bipolaris oryzae [6] = assay: Antifungal activity against Bipolaris oryzae infected in fifth-leaf stage of rice plant assessed as control of brown spot disease at 38 ug/ml treated as foliar application after 6 days; type: functional
Bipolaris oryzae [7] = assay: Antifungal activity against Bipolaris oryzae infected in fifth-leaf stage of rice plant assessed as control of brown spot disease at 150 ug/ml treated as foliar application after 6 days; type: functional
Fusarium fujikuroi [8] = assay: Antifungal activity against Fusarium fujikuroi infected in rice plant assessed as control of bakanae disease at 18 ug/ml treated as seed treatment after 2 weeks; type: functional
[9] = Bipolaris oryzae, 72 h, read-out: EC50
[10] = Fusarium fujikuroi, 72 h, read-out: EC50
[11] = Pyricularia oryzae, 72 h, read-out: EC50

SMILES	EC50 (Pyricularia oryzae)	EC50 (Bipolaris oryzae [1]; [9])	EC50 (Fusarium fujikuroi [2]; [10])	EC50 (Pyricularia oryzae; [11])	Activity (Fusarium fujikuroi [3])	Activity (Fusarium fujikuroi [4])	Activity (Oryza sativa)	Activity (Bipolaris oryzae [5])	Activity (Bipolaris oryzae [6])	Activity (Bipolaris oryzae [7])	Activity (Fusarium fujikuroi [8])	EC50 (Bipolaris oryzae [1])	EC50 (Fusarium fujikuroi [2])
CC(C)[C@H]1CC[C@H](Cc2ccc(Cl)cc2)[C@@]1(O)Cn1cncn1	0.01 µg/mL (≈ 0.03 µM)	0.2 µg/mL (≈ 0.599 µM)	0.03 µg/mL (≈ 0.0899 µM)										
CC(C)[C@@H]1CC[C@@H](Cc2ccc(Cl)cc2)[C@]1(O)Cn1cncn1		3 µg/mL (≈ 8.99 µM)	6 µg/mL (≈ 18 µM)	0.7 µg/mL (≈ 2.1 µM)									
CC(C)[C@@H]1CC[C@H](Cc2ccc(Cl)cc2)[C@@]1(O)Cn1cncn1		0.2 µg/mL (≈ 0.599 µM)	0.03 µg/mL (≈ 0.0899 µM)	0.04 µg/mL (≈ 0.12 µM)									
CC(C)[C@@H]1CC[C@@H](Cc2ccc(Cl)cc2)[C@@]1(O)Cn1cncn1 (racemic)		1 µg/mL (≈ 3 µM)	0.9 µg/mL (≈ 2.7 µM)	0.5 µg/mL (≈ 1.5 µM)	59.1%	95.2%	91.7%	25%	49%	92%	0%		
CC(C)[C@H]1CC[C@H](Cc2ccc(Cl)cc2)[C@@]1(O)Cn1cncn1 (racemic)	0.03 µg/mL (≈ 0.0899 µM)				97.5%	99.6%	90.7%	71%	98%	100%	52.1%	0.4 µg/mL (≈ 1.2 µM)	0.06 µg/mL (≈ 0.18 µM)
CC(C)[C@H]1CC[C@@H](Cc2ccc(Cl)cc2)[C@]1(O)Cn1cncn1		6 µg/mL (≈ 18 µM)	10 µg/mL (≈ 30 µM)	1 µg/mL (≈ 3 µM)									
CC(C)[C@@H]1CC[C@H](Cc2ccc(Cl)cc2)[C@@]1(O)Cn1cncn1 (racemic)	0.08 µg/mL (≈ 0.24 µM)				96.5%	98.7%	98.3%	86%	84%	100%	61.2%	0.4 µg/mL (≈ 1.2 µM)	0.05 µg/mL (≈ 0.15 µM)
CC(C)[C@H]1CC[C@@H](Cc2ccc(Cl)cc2)[C@@]1(O)Cn1cncn1 (racemic)		0.5 µg/mL (≈ 1.5 µM)	0.09 µg/mL (≈ 0.27 µM)	0.04 µg/mL (≈ 0.12 µM)	76.8%	97.5%	82.5%	53%	74%	100%	9.7%		

— ChEMBL document CHEMBL3045444, “Synthesis of Stereoisomers of Ipconazole and Their Fungicidal and Plant Growth Inhibitory Activities” (J Pestic Sci, 1997)
